The conditions of assay [1]: described in other applications by immatics; vaccines IMA901, IMA910; cited from earlier work.
For assay [2], the system named is CD8+ T cells. In words: In vitro immunogenicity of HLA-A*0201 restricted TUMAPs: priming of CD8+ T cells with pMHC/anti-CD28 coated beads (aAPC), multimer staining. Format: cell-based, human. Conditions: HLA-A*0201 peptides, healthy donors, three stimulation cycles; for Wells positive/evaluable [%]: at least 48 wells evaluable; for Donors positive/evaluable [%]: at least four donors evaluable. From the text:
(§1) In order to perform in vitro stimulations by artificial antigen presenting cells (aAPC) loaded with peptide-MHC complex (pMHC) and anti-CD28 antibody, we first isolated CD8 T cells from fresh HLA-A*24 leukapheresis products or from HLA-A*2 buffy coats of healthy donors obtained from the Blood Bank Tuebingen.
(§2) CD8 T cells were either directly enriched or PBMCs (peripheral blood mononuclear cells) were isolated first by using standard gradient separation medium (PAA, Colbe, Germany). Isolated CD8 lymphocytes or PBMCs were incubated until use in T-cell medium (TCM) consisting of RPMI-Glutamax (Invitrogen, Karlsruhe, Germany) supplemented with 10% heat inactivated human AB serum (PAN-Biotech, Aidenbach, Germany), 100 U/ml Penicillin/100 μg/ml Streptomycin (Cambrex, Cologne, Germany), 1 mM sodium pyruvate (CC Pro, Oberdorla, Germany), 20 μg/ml Gentamycin (Cambrex). […] Isolation of CD8+ lymphocytes was performed by positive selection using CD8 MicroBeads (Miltenyi Biotec, Bergisch-Gladbach, Germany).
(§3) 800.000 beads/200 μl were coated in 96-well plates in the presence of 600 ng biotin-anti-CD28 plus 200 ng relevant biotin-pMHC (high density beads). […] Half of the medium was then exchanged by fresh TCM supplemented with 80 U/ml IL-2 and incubation was continued for 3-4 days at 37° C. This stimulation cycle was performed for a total of three times.
(§4) In vitro priming of specific multimer+ CD8+ lymphocytes was detected by appropriate gating and by comparing to negative control stimulations.

Assay [3] relates to CD8+ T cells. In words: In vitro immunogenicity of HLA-A*2402 restricted TUMAPs: priming of CD8+ T cells with pMHC/anti-CD28 coated beads (aAPC), multimer staining. Format: cell-based, human. Conditions: HLA-A*2402 peptides, healthy donors, three stimulation cycles; for Wells positive/evaluable [%]: at least 48 wells evaluable; for Donors positive/evaluable [%]: at least four donors evaluable.
Source text: as §1, §2, §3, §4

Take “YVDPVIT SI (YVDPVITSI; listed as Homo sapiens) [MET-001]”: the in vivo reactions result in assay [1] is “extremely good in vivo reactions”. Also, in assay [2], the “Wells positive/evaluable [%]” value is on record as 42% and the “Donors positive/evaluable [%]” value was determined as 67%.
As for “KIQEILTQV (listed as Homo sapiens) [IGF2BP3-001]”, in assay [2], the “Wells positive/evaluable [%]” value was determined as 21% and the “Donors positive/evaluable [%]” value is reported as 50%.
With “KIFDEILVNA (listed as Homo sapiens) [TOP-001]”, in assay [2], the “Wells positive/evaluable [%]” value stood at 10% and the “Donors positive/evaluable [%]” value worked out at 40%.
“RYLPQCSYF (listed as Homo sapiens) [CCND2-001]”: in assay [3], the “Wells positive/evaluable [%]” value came to 10% and the “Donors positive/evaluable [%]” value came out at 17%.
For “VYLLNSTTL (listed as Homo sapiens) [CLCN3-001]”, in that order: 6% and 33%.
For “IFSKIVSLF (listed as Homo sapiens) [EIF2S3-001]”, in assay [3], the “Wells positive/evaluable [%]” value is listed as 1% and the “Donors positive/evaluable [%]” value is listed as 17%.
Consider “AYPTVKFYF (listed as Homo sapiens) [DNAJC10-002]”, for which, in assay [3], the “Wells positive/evaluable [%]” value came out at 3% and the “Donors positive/evaluable [%]” value was 33%.
For the substance “QYASRFVQL (listed as Homo sapiens) [PLK4-001]”, in assay [3], the “Wells positive/evaluable [%]” value stood at 5% and the “Donors positive/evaluable [%]” value is reported as 60%.
For “FYISPVNKL (listed as Homo sapiens) [AVL9-001]”, in that order: 31% and 100%.
For “VFIFKGNQF (listed as Homo sapiens) [MMP3-001]”, in that order: 1% and 11%.
“AYAIIKEEL (listed as Homo sapiens) [ATAD2-001]”: in assay [3], the “Wells positive/evaluable [%]” value is 3% and the “Donors positive/evaluable [%]” value came to 33%.
With “NYLLYVSNF (listed as Homo sapiens) [MST1R-001]”, in assay [3], the “Wells positive/evaluable [%]” value was determined as 13% and the “Donors positive/evaluable [%]” value turned out to be 50%.
For “MYMTVSIIDRF (listed as Homo sapiens) [CCNB1-003]”, in assay [3], the “Wells positive/evaluable [%]” value is recorded as 3% and the “Donors positive/evaluable [%]” value is recorded as 33%.
